Experimental data published in patent US7179825B2, “Retinoic acid mimetic anilides” (Janssen Pharmaceutica N.V., priority 1997, dated 2007).

What was measured:
[1] = system: metabolism of retinoic acid in human breast cancer cells; assay: Inhibition of retinoic acid (RA) metabolism (Example C.1); assay type: cell-based; conditions: MCF-7 human breast cancer cells, 3H-RA as substrate, concentration needed to reduce the amount of metabolites to 50% of the control
How it was run: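 Test compound (in 1% DMSO) added at several concentrations to MCF-7 cell suspensions fed ³H-RA, after RA induction of metabolism one day earlier. Scintillation counting of the separated polar metabolite fraction; IC50 = concentration giving 50% of control metabolite level.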

Ovariectomized rats = assay: Vaginal keratinization test on ovariectomized rats (Example C.2); assay type: in vivo; conditions: estradiol undecylate induced keratinization, per os once daily on days 1-3, active dose = 50% of rats show complete suppression
How it was run: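 Value is the lowest oral dose (mg/kg) at which half of tested rats show complete suppression of estradiol undecylate-induced vaginal keratinization by histology. Ovariectomized rats received 100 μg/100 g estradiol undecylate s.c., then compound or PEG 200 vehicle p.o. daily for three days; sacrifice one day later.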

SMILES | IC50 ([1]; MCF7) [nM] | IC50 [1] [nM] | minimal effective dose (Ovariectomized rats; Rattus norvegicus, po, read-out: LAD (lowest active dose)) [mg/kg] | LAD (lowest active dose) (Ovariectomized rats) [mg/kg]
CC(C)C(c1ccc(NC(=S)Cc2ccc(Cl)cc2)cc1)n1ccnc1 (stereo not shown) [Compound 764, 4-chloro-N-[4-[1-(1H-imidazol-1-yl)-2-methylpropyl]phenyl]benzenethane-thioamide] | 23.3 |  | > 5 | 
C/C(=C\c1ccccc1)C(=O)Nc1ccc(C(C(c2ccccc2)c2ccccc2)n2ccnc2)cc1 (racemic) [Compound 485] |  | > 100 |  | 5.00
CC(C)C(c1ccc(NC(=O)Nc2ccc(F)cc2F)cc1)n1ccnc1 (racemic) [Compound 734] |  | 2.25 |  | 10.00
O=C(Nc1ccc(C(C2CCCCC2)n2ccnc2)cc1)/C(=C/c1ccccc1)c1ccccc1 (racemic) [Compound 468] |  | > 100 |  | 10.00
CC(C)C(c1ccc(NC(=O)NCc2ccccc2)cc1)n1ccnc1 (stereo not shown) [Compound 269] |  | 2.66 |  | >10.00
CC(C)C(c1ccc(NC(=O)C2CC2C)cc1)n1ccnc1 (mixture of isomers) [Compound 197] |  | 5.61 |  | >10.00
CC(C)C(c1ccc(NC(=O)Cc2ccc(N)c(I)c2)cc1)n1ccnc1 (stereo not shown) [Compound 148] |  | 1.86 |  | >5.00
CC(C)C(c1ccc(NC(=S)Nc2ccccc2)cc1)n1ccnc1 (racemic) [Compound 697] |  | 17.1 |  | 10.00
CC1C(C(=O)Nc2ccc(C(C(C)C)n3ccnc3)cc2)=Cc2ccccc21 (mixture of isomers) [Compound 180] |  | 56.9 |  | >10.00
CC(C)C(c1ccc(NC(=O)Cc2ccc(Cl)cc2)cc1)n1ccnc1 (stereo not shown) [Compound 651] |  | 10.5 |  | 5.00
C/C(=C\c1ccco1)C(=O)Nc1ccc(C(C(C)C)n2ccnc2)cc1 (racemic) [Compound 594] |  | 4.81 |  | >10.00

Further compounds by falling IC50 [1], results first:

IC50 ([1]; MCF7) [nM] | IC50 [1] [nM] | SMILES | minimal effective dose (Ovariectomized rats; Rattus norvegicus, po, read-out: LAD (lowest active dose)) [mg/kg] | LAD (lowest active dose) (Ovariectomized rats) [mg/kg]
 | 1.64 | CC(C)C(c1ccc(NC(=O)Nc2cccc(N)c2)cc1)n1ccnc1 (racemic) [Compound 727] |  | >10.00
 | 1.37 | CCC(CC)C(c1ccc(NC(=O)C(C)(C)O)cc1)n1ccnc1 (racemic) [Compound 24] |  | 2.50
 | 1.25 | CCC(CC)C(c1ccc(NC(=O)C2Oc3ccccc3O2)cc1)n1cncn1 (racemic) [Compound 621] |  | 1.25
 | 1.23 | CC(C(c1ccc(NC(=O)Cc2ccc3c(c2)OCCO3)cc1)n1ccnc1)N(C)C (single isomer, unassigned) [Compound 339] |  | >2.50
 | 1.18 | CCC(CC)C(c1ccc(NC(=O)Nc2cccc(F)c2)cc1)n1ccnc1 (racemic) [Compound 724] |  | 2.50
 | 0.935 | CCC(CC)C(c1ccc(NC(=O)Cc2ccc(OC)c(OC)c2)cc1)n1ccnc1 (racemic) [Compound 91] |  | 2.50
 | 0.588 | CCOc1ccc(CC(=O)Nc2ccc(C(C(CC)CC)n3cncn3)cc2)cc1C (racemic) [Compound 76] |  | >2.50
 | 0.296 | CCCC(CCC)C(c1ccc(NC(=O)Cc2ccc(OC)c(OC)c2)cc1)n1cncn1 (racemic) [Compound 644] |  | 2.50
 | 0.188 | CCC(CC)C(c1ccc(NC(=O)Nc2cc(F)ccc2F)cc1)n1ccnc1 (racemic) [Compound 710] |  | 2.50
